Activity calls are given as the source filed them. No cut-off for these calls is given here.
How the values were obtained:
[1] = Inhibition of Penicillium fellutanum exo beta-D-galactofuranosidase assessed as 4-nitrophenol release by spectrophotometry
Penicillium fellutanum = experiment: Inhibition of Penicillium fellutanum exo beta-D-galactofuranosidase assessed as 4-nitrophenol release at 0.2 to 1 mM by spectrophotometry

IC50 [1] [µM]	Activity (Penicillium fellutanum)	SMILES
> 1000	Active	CO[C@H]1O[C@H](CS[C@@H]2O[C@@H]([C@H](O)CO)[C@H](O)[C@H]2O)[C@H](O)[C@H](O)[C@H]1O
–	inactive	CO[C@H]1O[C@H](CS[C@@H]2O[C@@H](CO)[C@H](O)[C@H]2O)[C@@H](O)[C@H](O)[C@H]1O
> 1000	Active	CC1(C)O[C@H]2[C@@H](O1)[C@@H](CS[C@@H]1O[C@@H]([C@H](O)CO)[C@H](O)[C@H]1O)O[C@@H]1OC(C)(C)O[C@@H]12
20	–	O=C1O[C@@H]([C@H](O)CO)[C@H](O)[C@H]1O
